Assay results published in paper PMC10408569, “Recruitment of hexahydroquinoline as anticancer scaffold targeting inhibition of wild and mutants EGFR (EGFR^WT, EGFR^T790M, and EGFR^L858R)” (Journal of Enzyme Inhibition and Medicinal Chemistry, 2023).

How the values were obtained:
A498 = assay: NCI-60 anticancer screening (SRB); type: cell-based; conditions: Homo sapiens; A498, renal cancer; one dose 10 μM; read-out: Growth Inhibition Percentage (GI %)
MCF7 = assay: NCI-60 anticancer screening (SRB); type: cell-based; conditions: Homo sapiens; MCF7, breast cancer; one dose 10 μM; read-out: Growth Inhibition Percentage (GI %)
PC-3 = assay: NCI-60 anticancer screening (SRB); type: cell-based; conditions: Homo sapiens; PC-3, prostate cancer; one dose 10 μM; read-out: Growth Inhibition Percentage (GI %)
IGROV1 = assay: NCI-60 anticancer screening (SRB); type: cell-based; conditions: Homo sapiens, IGROV-1; IGROV1, ovarian cancer; one dose 10 μM; read-out: Growth Inhibition Percentage (GI %)
HOP-92 = assay: NCI-60 anticancer screening (SRB); type: cell-based; conditions: Homo sapiens; HOP-92, NSC lung cancer; one dose 10 μM; read-out: Growth Inhibition Percentage (GI %)
SW-620 = assay: NCI-60 anticancer screening (SRB); type: cell-based; conditions: Homo sapiens; SW-620, colon cancer; one dose 10 μM; read-out: Growth Inhibition Percentage (GI %)
SK-MEL-2 = assay: NCI-60 anticancer screening (SRB); type: cell-based; conditions: Homo sapiens; SK-MEL-2, melanoma; one dose 10 μM; read-out: Growth Inhibition Percentage (GI %)
LOX IMVI = assay: NCI-60 anticancer screening (SRB); type: cell-based; conditions: Homo sapiens, melanoma, one dose 10 μM, read-out: Growth Inhibition Percentage (GI %)
OVCAR-3 = assay: NCI-60 anticancer screening (SRB); type: cell-based; conditions: Homo sapiens; OVCAR-3, ovarian cancer; one dose 10 μM; read-out: Growth Inhibition Percentage (GI %)
MDA-MB-468 = assay: NCI-60 anticancer screening (SRB); type: cell-based; conditions: Homo sapiens; MDA-MB-468, breast cancer; one dose 10 μM; read-out: Growth Inhibition Percentage (GI %)
SR = assay: NCI-60 anticancer screening (SRB); type: cell-based; conditions: Homo sapiens, leukemia, one dose 10 μM, read-out: Growth Inhibition Percentage (GI %)
ACHN = assay: NCI-60 anticancer screening (SRB); type: cell-based; conditions: Homo sapiens, renal cancer, one dose 10 μM, read-out: Growth Inhibition Percentage (GI %)
OVCAR-8 = assay: NCI-60 anticancer screening (SRB); type: cell-based; conditions: Homo sapiens; OVCAR-8, ovarian cancer; one dose 10 μM; read-out: Growth Inhibition Percentage (GI %)
COLO 205 = assay: NCI-60 anticancer screening (SRB); type: cell-based; conditions: Homo sapiens; COLO 205, colon cancer; one dose 10 μM; read-out: Growth Inhibition Percentage (GI %)
CCRF-CEM = assay: NCI-60 anticancer screening (SRB); type: cell-based; conditions: Homo sapiens, leukemia, one dose 10 μM, read-out: Growth Inhibition Percentage (GI %)
SK-OV-3 = assay: NCI-60 anticancer screening (SRB); type: cell-based; conditions: Homo sapiens; SK-OV-3, ovarian cancer; one dose 10 μM; read-out: Growth Inhibition Percentage (GI %)
OVCAR-4 = assay: NCI-60 anticancer screening (SRB); type: cell-based; conditions: Homo sapiens; OVCAR-4, ovarian cancer; one dose 10 μM; read-out: Growth Inhibition Percentage (GI %)
OVCAR-5 = assay: NCI-60 anticancer screening (SRB); type: cell-based; conditions: Homo sapiens; OVCAR-5, ovarian cancer; one dose 10 μM; read-out: Growth Inhibition Percentage (GI %)
UO-31 = assay: NCI-60 anticancer screening (SRB); type: cell-based; conditions: Homo sapiens; UO-31, renal cancer; one dose 10 μM; read-out: Growth Inhibition Percentage (GI %)
HS 578T = assay: NCI-60 anticancer screening (SRB); type: cell-based; conditions: Homo sapiens; HS 578T, breast cancer; one dose 10 μM; read-out: Growth Inhibition Percentage (GI %)
BT-549 = assay: NCI-60 anticancer screening (SRB); type: cell-based; conditions: Homo sapiens; BT-549, breast cancer; one dose 10 μM; read-out: Growth Inhibition Percentage (GI %)
UACC-257 = assay: NCI-60 anticancer screening (SRB); type: cell-based; conditions: Homo sapiens; UACC-257, melanoma; one dose 10 μM; read-out: Growth Inhibition Percentage (GI %)
MOLT-4 = assay: NCI-60 anticancer screening (SRB); type: cell-based; conditions: Homo sapiens; MOLT-4, leukemia; one dose 10 μM; read-out: Growth Inhibition Percentage (GI %)
U251 = assay: NCI-60 anticancer screening (SRB); type: cell-based; conditions: Homo sapiens, U-251; U251, CNS cancer; one dose 10 μM; read-out: Growth Inhibition Percentage (GI %)
HCT-116 = assay: NCI-60 anticancer screening (SRB); type: cell-based; conditions: Homo sapiens; HCT-116, colon cancer; one dose 10 μM; read-out: Growth Inhibition Percentage (GI %)
NCI-H226 = assay: NCI-60 anticancer screening (SRB); type: cell-based; conditions: Homo sapiens; NCI-H226, NSC lung cancer; one dose 10 μM; read-out: Growth Inhibition Percentage (GI %)
K-562 = assay: NCI-60 anticancer screening (SRB); type: cell-based; conditions: Homo sapiens, K562; K-562, leukemia; one dose 10 μM; read-out: Growth Inhibition Percentage (GI %)
MALME-3M = assay: NCI-60 anticancer screening (SRB); type: cell-based; conditions: Homo sapiens, melanoma, one dose 10 μM, read-out: Growth Inhibition Percentage (GI %)

SMILES	inhibition at 10 µM (A498) [%]	inhibition at 10 µM (MCF7) [%]	inhibition at 10 µM (PC-3) [%]	inhibition at 10 µM (IGROV1) [%]	inhibition at 10 µM (HOP-92) [%]	inhibition at 10 µM (SW-620) [%]	inhibition at 10 µM (SK-MEL-2) [%]	inhibition at 10 µM (LOX IMVI) [%]	inhibition at 10 µM (OVCAR-3) [%]	inhibition at 10 µM (MDA-MB-468) [%]	inhibition at 10 µM (SR) [%]	inhibition at 10 µM (ACHN) [%]	inhibition at 10 µM (OVCAR-8) [%]	inhibition at 10 µM (COLO 205) [%]	inhibition at 10 µM (CCRF-CEM) [%]	inhibition at 10 µM (SK-OV-3) [%]	inhibition at 10 µM (OVCAR-4) [%]	inhibition at 10 µM (OVCAR-5) [%]	inhibition at 10 µM (UO-31) [%]	inhibition at 10 µM (HS 578T) [%]	other results
CCOC(=O)C1=C(N)N(c2ccc(Cl)cc2)C2=C(C(=O)CC(C)(C)C2)C1c1cccnc1 (racemic) [12f, (±)-Ethyl 2-amino-1–(4-chlorophenyl)-7,7-dimethyl-5-oxo-4-(pyridin-3-yl)-1,4,5,6,7,8-hexahydroquinoline-3-carboxylate]	< 10	< 10	< 10	< 10	< 10	< 10	< 10	12	< 10	< 10	< 10	< 10	< 10	< 10	< 10	< 10	13	< 10	21	16	melting point: 261 to 263 °C; inhibition at 10 µM (BT-549): < 10%; inhibition at 10 µM (UACC-257): < 10%; inhibition at 10 µM (MOLT-4): < 10%; inhibition at 10 µM (U251): < 10%; inhibition at 10 µM (HCT-116): < 10%; inhibition at 10 µM (NCI-H226): < 10%; inhibition at 10 µM (K-562): < 10%; inhibition at 10 µM (MALME-3M): < 10%
CCOC(=O)C1=C(N)N(c2ccc(C)cc2)C2=C(C(=O)CC(C)(C)C2)C1c1ccc(Cl)cc1 (racemic) [8d, (±)-Ethyl 2-amino-4–(4-chlorophenyl)-7,7-dimethyl-1–(4-methylphenyl)-5-oxo-1,4,5,6,7,8-hexahydroquinoline-3-carboxylate]	< 10	35	43	< 10	< 10	20	< 10	< 10	16	18	< 10	< 10	13	23	< 10	< 10	< 10	< 10	16	< 10	melting point: 205 to 207 °C; inhibition at 10 µM (BT-549): < 10%; inhibition at 10 µM (UACC-257): < 10%; inhibition at 10 µM (MOLT-4): < 10%; inhibition at 10 µM (U251): < 10%; inhibition at 10 µM (HCT-116): 14%; inhibition at 10 µM (NCI-H226): < 10%; inhibition at 10 µM (K-562): < 10%; inhibition at 10 µM (MALME-3M): < 10%
